{
  "source": "BigSolDB 2.1",
  "data": [
    {"smiles": "C=CC(=O)Nc1cc(F)c(Br)c(F)c1", "values": [
      {"measurement": "solubility (mole fraction)", "setting": "in acetonitrile, 284.65 K", "result": 0.006},
      {"measurement": "solubility (mole fraction)", "setting": "in acetonitrile, 291.45 K", "result": 0.0079},
      {"measurement": "solubility (mole fraction)", "setting": "in acetonitrile, 294.75 K", "result": 0.009},
      {"measurement": "solubility (mole fraction)", "setting": "in acetonitrile, 298.25 K", "result": 0.0104},
      {"measurement": "solubility (mole fraction)", "setting": "in acetonitrile, 301.85 K", "result": 0.0121},
      {"measurement": "solubility (mole fraction)", "setting": "in acetonitrile, 305.35 K", "result": 0.0139},
      {"measurement": "solubility (mole fraction)", "setting": "in acetonitrile, 308.45 K", "result": 0.0158},
      {"measurement": "solubility (mole fraction)", "setting": "in acetonitrile, 312.75 K", "result": 0.0186},
      {"measurement": "solubility (mole fraction)", "setting": "in acetonitrile, 316.65 K", "result": 0.0217},
      {"measurement": "solubility (mole fraction)", "setting": "in acetonitrile, 320.05 K", "result": 0.0248},
      {"measurement": "solubility (mole fraction)", "setting": "in acetonitrile, 323.85 K", "result": 0.0288},
      {"measurement": "solubility (mole fraction)", "setting": "in acetonitrile, 327.65 K", "result": 0.0332},
      {"measurement": "solubility (mole fraction)", "setting": "in acetonitrile, 331.75 K", "result": 0.0386},
      {"measurement": "solubility (mole fraction)", "setting": "in acetonitrile, 334.15 K", "result": 0.0423},
      {"measurement": "solubility (mole fraction)", "setting": "in acetonitrile, 337.75 K", "result": 0.0482},
      {"measurement": "solubility (mole fraction)", "setting": "in acetonitrile, 340.45 K", "result": 0.0533},
      {"measurement": "solubility (mole fraction)", "setting": "in acetonitrile, 343.55 K", "result": 0.0596},
      {"measurement": "solubility (mole fraction)", "setting": "in acetonitrile, 346.35 K", "result": 0.0662},
      {"measurement": "solubility (mole fraction)", "setting": "in acetonitrile, 348.95 K", "result": 0.0725},
      {"measurement": "solubility (mole fraction)", "setting": "in benzene, 296.35 K", "result": 0.0007},
      {"measurement": "solubility (mole fraction)", "setting": "in benzene, 302.95 K", "result": 0.0011},
      {"measurement": "solubility (mole fraction)", "setting": "in benzene, 308.75 K", "result": 0.0014},
      {"measurement": "solubility (mole fraction)", "setting": "in benzene, 310.75 K", "result": 0.0015},
      {"measurement": "solubility (mole fraction)", "setting": "in benzene, 317.65 K", "result": 0.0022},
      {"measurement": "solubility (mole fraction)", "setting": "in benzene, 324.25 K", "result": 0.003},
      {"measurement": "solubility (mole fraction)", "setting": "in benzene, 332.05 K", "result": 0.0044},
      {"measurement": "solubility (mole fraction)", "setting": "in benzene, 335.95 K", "result": 0.0054},
      {"measurement": "solubility (mole fraction)", "setting": "in benzene, 340.85 K", "result": 0.0067},
      {"measurement": "solubility (mole fraction)", "setting": "in benzene, 347.05 K", "result": 0.0094},
      {"measurement": "solubility (mole fraction)", "setting": "in ethanol, 295.25 K", "result": 0.0251},
      {"measurement": "solubility (mole fraction)", "setting": "in ethanol, 297.65 K", "result": 0.0264},
      {"measurement": "solubility (mole fraction)", "setting": "in ethanol, 301.55 K", "result": 0.0292},
      {"measurement": "solubility (mole fraction)", "setting": "in ethanol, 309.25 K", "result": 0.0351},
      {"measurement": "solubility (mole fraction)", "setting": "in ethanol, 312.95 K", "result": 0.0384},
      {"measurement": "solubility (mole fraction)", "setting": "in ethanol, 318.55 K", "result": 0.044},
      {"measurement": "solubility (mole fraction)", "setting": "in ethanol, 326.45 K", "result": 0.0534},
      {"measurement": "solubility (mole fraction)", "setting": "in ethanol, 331.35 K", "result": 0.0604},
      {"measurement": "solubility (mole fraction)", "setting": "in ethanol, 334.85 K", "result": 0.0659},
      {"measurement": "solubility (mole fraction)", "setting": "in ethanol, 339.55 K", "result": 0.074},
      {"measurement": "solubility (mole fraction)", "setting": "in ethanol, 344.45 K", "result": 0.0838},
      {"measurement": "solubility (mole fraction)", "setting": "in ethanol, 347.55 K", "result": 0.0905},
      {"measurement": "solubility (mole fraction)", "setting": "in methanol, 294.25 K", "result": 0.0142},
      {"measurement": "solubility (mole fraction)", "setting": "in methanol, 298.65 K", "result": 0.0163},
      {"measurement": "solubility (mole fraction)", "setting": "in methanol, 303.16 K", "result": 0.0189},
      {"measurement": "solubility (mole fraction)", "setting": "in methanol, 308.45 K", "result": 0.0221},
      {"measurement": "solubility (mole fraction)", "setting": "in methanol, 312.35 K", "result": 0.0249},
      {"measurement": "solubility (mole fraction)", "setting": "in methanol, 318.15 K", "result": 0.0298},
      {"measurement": "solubility (mole fraction)", "setting": "in methanol, 321.05 K", "result": 0.0325},
      {"measurement": "solubility (mole fraction)", "setting": "in methanol, 324.65 K", "result": 0.036},
      {"measurement": "solubility (mole fraction)", "setting": "in methanol, 327.45 K", "result": 0.0391},
      {"measurement": "solubility (mole fraction)", "setting": "in methanol, 328.95 K", "result": 0.041},
      {"measurement": "solubility (mole fraction)", "setting": "in pyridine, 288.95 K", "result": 0.139},
      {"measurement": "solubility (mole fraction)", "setting": "in pyridine, 292.45 K", "result": 0.145},
      {"measurement": "solubility (mole fraction)", "setting": "in pyridine, 298.95 K", "result": 0.157},
      {"measurement": "solubility (mole fraction)", "setting": "in pyridine, 303.85 K", "result": 0.166},
      {"measurement": "solubility (mole fraction)", "setting": "in pyridine, 310.25 K", "result": 0.178},
      {"measurement": "solubility (mole fraction)", "setting": "in pyridine, 317.05 K", "result": 0.193},
      {"measurement": "solubility (mole fraction)", "setting": "in pyridine, 322.55 K", "result": 0.205},
      {"measurement": "solubility (mole fraction)", "setting": "in pyridine, 328.45 K", "result": 0.219},
      {"measurement": "solubility (mole fraction)", "setting": "in pyridine, 333.15 K", "result": 0.23},
      {"measurement": "solubility (mole fraction)", "setting": "in pyridine, 338.25 K", "result": 0.243},
      {"measurement": "solubility (mole fraction)", "setting": "in pyridine, 344.95 K", "result": 0.262},
      {"measurement": "solubility (mole fraction)", "setting": "in pyridine, 348.85 K", "result": 0.273},
      {"measurement": "solubility (mole fraction)", "setting": "in toluene, 286.65 K", "result": 0.0006},
      {"measurement": "solubility (mole fraction)", "setting": "in toluene, 291.95 K", "result": 0.0008},
      {"measurement": "solubility (mole fraction)", "setting": "in toluene, 292.05 K", "result": 0.0008},
      {"measurement": "solubility (mole fraction)", "setting": "in toluene, 295.95 K", "result": 0.0009},
      {"measurement": "solubility (mole fraction)", "setting": "in toluene, 301.75 K", "result": 0.0011},
      {"measurement": "solubility (mole fraction)", "setting": "in toluene, 301.85 K", "result": 0.0012},
      {"measurement": "solubility (mole fraction)", "setting": "in toluene, 307.95 K", "result": 0.0015},
      {"measurement": "solubility (mole fraction)", "setting": "in toluene, 312.05 K", "result": 0.0019},
      {"measurement": "solubility (mole fraction)", "setting": "in toluene, 316.05 K", "result": 0.0022},
      {"measurement": "solubility (mole fraction)", "setting": "in toluene, 319.25 K", "result": 0.0026},
      {"measurement": "solubility (mole fraction)", "setting": "in toluene, 323.75 K", "result": 0.003},
      {"measurement": "solubility (mole fraction)", "setting": "in toluene, 327.95 K", "result": 0.0035},
      {"measurement": "solubility (mole fraction)", "setting": "in toluene, 331.15 K", "result": 0.0043},
      {"measurement": "solubility (mole fraction)", "setting": "in toluene, 334.65 K", "result": 0.0051},
      {"measurement": "solubility (mole fraction)", "setting": "in toluene, 337.65 K", "result": 0.0059},
      {"measurement": "solubility (mole fraction)", "setting": "in toluene, 342.35 K", "result": 0.0069}
    ]}
  ]
}
